# Results: US8821862B2, “Soluble β-N-acetylglucosaminidase based antibiofilm compositions and uses thereof” (Kane Biotech Inc., priority 2002, dated 2014)
# Assays:
# S. aureus 68 = experiment: MIC, clinical isolates of wound-associated pathogens; assay type: cell-based; conditions: Staphylococcus aureus; triclosan in the presence of DispersinB 40 μg/ml; clinical isolate S. aureus 68
# Protocol: (§1) The combined antimicrobial activity of DispersinB™ and triclosan was studied by determining minimal inhibitory concentrations (MIC) in a 96 well microtiter plate. Briefly, serial two-fold dilutions of triclosan and in presence of DispersinB™ (40 μg/ml) were performed in TSB. A suspension of each microorganism from Table 1 was added to wells at a concentration of 5×10^5 CFU/mL, and the microtiter plates were incubated at 37° C. The MIC was defined, as the lowest concentration of an antimicrobial required for total inhibition of a test microorganism at 37° C. Triclosan in combination with DispersinB™ was active against all the pathogens tested.
# (§2) The antimicrobial activity of DispersinB™ and triclosan combination was studied by determining the minimal inhibitory concentrations (MIC) in 96 well microtiter plates as described in Example 4. Triclosan in combination with DispersinB™ was active against all the pathogens tested (Table 2).
# S. aureus Gav 16A = experiment: as above; assay type: cell-based; conditions: Staphylococcus aureus, GAV16A; triclosan in the presence of DispersinB 40 μg/ml; clinical isolate S. aureus Gav 16A
# Protocol: as §1, §2
# [1] = tested on: Coagulase-negative staphylococci (CNS 11); experiment: as above; assay type: cell-based; conditions: triclosan in the presence of DispersinB 40 μg/ml; clinical isolate CNS 11
# Protocol: as §1, §2
# S. aureus 120 = experiment: as above; assay type: cell-based; conditions: Staphylococcus aureus; triclosan in the presence of DispersinB 40 μg/ml; clinical isolate S. aureus 120
# Protocol: as §1, §2
# E. coli [2] = experiment: MIC in 96 well microtiter plate; assay type: cell-based; conditions: Escherichia coli, triclosan in the presence of DispersinB 40 μg/ml, 37° C.
# Protocol: as §1
# S. aureus = experiment: MIC in 96 well microtiter plate; assay type: cell-based; conditions: Staphylococcus aureus, triclosan in the presence of DispersinB 40 μg/ml, 37° C.
# Protocol: as §1
# E. faecalis = experiment: MIC in 96 well microtiter plate; assay type: cell-based; conditions: Enterococcus faecalis, triclosan in the presence of DispersinB 40 μg/ml, 37° C.
# Protocol: as §1
# K. pneumoniae = experiment: MIC in 96 well microtiter plate; assay type: cell-based; conditions: Klebsiella pneumoniae, triclosan in the presence of DispersinB 40 μg/ml, 37° C.
# Protocol: as §1
# S. epidermidis [3] = experiment: MIC in 96 well microtiter plate; assay type: cell-based; conditions: Staphylococcus epidermidis, triclosan in the presence of DispersinB 40 μg/ml, 37° C.
# Protocol: as §1
# P. mirabilis = experiment: MIC in 96 well microtiter plate; assay type: cell-based; conditions: Proteus mirabilis, triclosan in the presence of DispersinB 40 μg/ml, 37° C.
# Protocol: as §1
# E. faecium = experiment: MIC in 96 well microtiter plate; assay type: cell-based; conditions: Enterococcus faecium, triclosan in the presence of DispersinB 40 μg/ml, 37° C.
# Protocol: as §1
# Enterobacter cloacae = experiment: MIC in 96 well microtiter plate; assay type: cell-based; conditions: triclosan in the presence of DispersinB 40 μg/ml, 37° C.
# Protocol: as §1
# C. albicans = experiment: MIC in 96 well microtiter plate; assay type: cell-based; conditions: Candida albicans, triclosan in the presence of DispersinB 40 μg/ml, 37° C.
# Protocol: as §1
# CNS 42 = experiment: MIC, clinical isolates of wound-associated pathogens; assay type: cell-based, Coagulase-negative staphylococci; conditions: triclosan in the presence of DispersinB 40 μg/ml; clinical isolate CNS 42
# Protocol: as §1, §2
# CNS 82 = experiment: as above; assay type: cell-based, Coagulase-negative staphylococci; conditions: triclosan in the presence of DispersinB 40 μg/ml; clinical isolate CNS 82
# Protocol: as §1, §2
# E. coli [4] = experiment: Adhesion assay with coated silicone catheter segments; assay type: cell-based, Escherichia coli; conditions: silicone catheter coated with TCSN 10 mg/ml alone versus DispersinB 40 μg/ml alone
# Protocol: (§3) The adhesion assay was performed to determine the synergistic effect of DispersinB™ and TCSN combination coated silicone catheters on S. epidermidis and E. coli colonization. The silicone catheter segments (1 cm each) were coated by dipping in DispersinB™ (40 μg/ml) and TCSN (10 mg/ml in 10% Polyethylene glycol) alone and in combination for overnight at 4° C. followed by drying at room temperature. The coated and uncoated segments were incubated in S. epidermidis and E. coli culture in TSB medium at 37° C. for 24 hours at 100 rpm. After 24 hours of incubation, the sections were washed three times gently. Each washed section was transferred into a sterile tube containing 1 ml sterile saline and subjected to sonication for 30 seconds and followed by 1 minute vortexing. Further, it was serially diluted using sterile saline and plated using Tryptic Soy Agar (TSA) plates. The plates were incubated at 37° C. for 24 hours and the colonies (CFU) were counted.
# S. epidermidis [5] = experiment: as above; assay type: cell-based, Staphylococcus epidermidis; conditions: silicone catheter coated with TCSN 10 mg/ml alone versus DispersinB 40 μg/ml alone
# Protocol: as §3
smiles,measurement,setting,value
Oc1cc(Cl)ccc1Oc1ccc(Cl)cc1Cl [triclosan],MIC,S. aureus 68,< 0.39 µg/mL
same,MIC,S. aureus Gav 16A,< 0.39 µg/mL
same,MIC,[1],25 µg/mL
same,MIC,S. aureus 120,< 0.39 µg/mL
same,MIC,E. coli [2],6.25 µg/mL
same,MIC,S. aureus,< 0.097 µg/mL
same,MIC,E. faecalis,100 µg/mL
same,MIC,K. pneumoniae,25 µg/mL
same,MIC,S. epidermidis [3],3.12 µg/mL
same,MIC,P. mirabilis,12.5 µg/mL
same,MIC,E. faecium,12.5 µg/mL
same,MIC,Enterobacter cloacae,25 µg/mL
same,MIC,C. albicans,100 µg/mL
same,MIC,CNS 42,0.625 µg/mL
same,MIC,CNS 82,< 0.39 µg/mL
same,"inhibiting the growth of biofilm-embedded E. coli, coating alone",E. coli [4],more effective than DispersinB™
same,"inhibiting the growth of biofilm-embedded S. epidermidis, coating alone",S. epidermidis [5],more effective than DispersinB™
